Earlier results as cited in patent publication US20240398763A1, “ORAL DOSAGE FORM CONTAINING ONCOLOGICAL ACTIVE INGREDIENT” (OWP Pharmaceuticals, Inc., priority 2023, published 2024).
Counter-ions that a name gives are not always drawn. Like-named read-outs stand apart in the source and are kept apart here.

[1] = in water / aqueous media, in words

Compound	Solubility [1]	further results
COc1cc2nccc(Oc3ccc(NC(=O)Nc4cc(C)on4)c(Cl)c3)c2cc1OC [tivozanib]	insoluble in water	–
CC[C@@]1(O)C(=O)OCc2c1cc1n(c2=O)Cc2cc3c(CN(C)C)c(O)ccc3nc2-1 [topotecan]	water soluble	–
CN(C)CCOc1ccc(/C(=C(/CCCl)c2ccccc2)c2ccccc2)cc1 [toremifene citrate]	–	Water solubility (at 37° C.): 37 °C is 0.63 mg/mL
CC1=C(/C=C/C(C)=C/C=C/C(C)=C/C(=O)O)C(C)(C)CCC1 [tretinoin]	insoluble in water	–
O=c1[nH]c(=O)n([C@H]2C[C@H](O)[C@@H](CO)O2)cc1C(F)(F)F [trifluridine]	water soluble; water	–
Cc1cc(Nc2ncnc3ccc(NC4=NC(C)(C)CO4)cc23)ccc1Oc1ccn2ncnc2c1 [tucatinib]	insoluble in water	–
CS(=O)(=O)c1ccc(C(=O)Nc2ccc(Cl)c(-c3ccccn3)c2)c(Cl)c1 [vismodegib]	–	Solubility (pH 1): 0.99 mg/mL at pH 1; Solubility (pH 7): 0.1 μg/mL at pH 7 and
